Several values for one entry are separate records, joined by “and”; a condition that tells them apart may be missing. Equal entries are not always repeated. Where two headings read alike, the source gives them in different places.
Assays:
recombinant BRD4 BD1 = target: T1, recombinant BRD4 BD1 (Homo sapiens, UniProt O60885); test: Competitive fluorescence-polarization (FP) binding assay, BRD4 BD1
T1 construct: recombinant BRD4 BD1 and BRD4 BD2 proteins
Experimental: Fluorescence Polarization (FP) competitive binding studies were carried out using a FAM labeled fluorescent probe, see Cpd. […] Equilibrium dissociation constants (Kd) values of the fluorescent probe to BRD4 BD1 and BD2 proteins were determined from protein saturation experiments by monitoring the total fluorescence polarization of mixtures composed with the fluorescent probe at a fixed concentration and proteins with increasing concentrations up to full saturation. […] Plates were incubated at room temperature for 30 minutes with gentle shaking to assure equilibrium.
The IC50 and Ki values of compounds were determined in a competitive binding experiment. […] Mixtures of 10 μl of the tested compounds in assay buffer with 40% Ethylene Glycol and 190 μl of preincubated protein/probe complex solution in the assay buffer (100 mM potassium phosphate, pH 6.5, 0.01% Triton X-100) were added into assay plates which were incubated at room temperature for 30 minutes with gentle shaking. Final concentrations of proteins were 10 and 6 nM in assays for BRD4 BD1 and BD2, respectively. […] FP values were measured as described above. IC50 values were determined by nonlinear regression fitting of the competition curves.

RS4-11 = test: Cell growth inhibition, 4-day proliferation assay, RS4-11; assay type: cell-based; conditions: read-out: Cell Viability (IC50, μM) RS4-11
Experimental: (§1) The effect of representative Compounds of the Disclosure on cell viability was determined in a 4-day proliferation assay. Cells were maintained in the appropriate culture medium with 10% FBS at 37° C. and an atmosphere of 5% CO2. All the cell lines were used within three months of thawing fresh vials.
(§2) Cells were seeded in 96-well flat bottom (Corning COSTAR, Corning, N.Y., cat #3595) or white opaque cell culture plates (BD Falcon, cat #353296) at a density of 3,000-10,000 cells/well in 75 μl of culture medium. Compounds were serially diluted in the appropriate medium, and 75 μl of the diluted compounds were added to the appropriate wells of the cell plate. After the addition of compounds, the cells were incubated at 37° C. in an atmosphere of 5% CO2 for 4 days. Cell viability was determined using the CellTiter-Glo® Luminescent Cell Viability Assay Kit (Promega, Madison, Wis.) for leukemia cells and WST (2-(2-methoxy-4-nitrophenyl)-3-(4-nitrophenyl)-5-(2,4-disulfophenyl)-2H-tetrazolium, monosodium salt) Cell Counting-8 Kit (Dojindo Molecular Technologies, Inc., Rockville, Md.) for adhenrent cells according to the manufacturers' instructions. […]
(§3) For CellTiter-Glo assay (suspension cells), 100 μl of CellTiter-Glo® Reagent was added to each well, and then the plates were incubated at room temperature for 10-20 minutes. The luminescent signal was measured using a Tecan Infinite M1000 multimode microplate reader (Tecan, Morrisville, N.C.). The readings were normalized to the DMSO-treated cells and the IC50 was calculated by nonlinear regression (four parameters sigmoid fitted with variable slope, least squares fit, and no constraint) analysis using the GraphPad Prism 5 software. See US 2014/0256706.

MOLM-13 = test: Cell growth inhibition, 4-day proliferation assay, MOLM-13; assay type: cell-based; conditions: read-out: Cell Viability (IC50, μM) MOLM-13
Experimental: as §1, §2, §3

recombinant BRD4 BD2 = target: T2, recombinant BRD4 BD2 (Homo sapiens, UniProt O60885); test: Competitive fluorescence-polarization (FP) binding assay, BRD4 BD2; conditions: protein 6 nM, probe 1.5 nM
T2 construct: recombinant BRD4 BD1 and BRD4 BD2 proteins
Experimental: Fluorescence Polarization (FP) competitive binding studies were carried out using a FAM labeled fluorescent probe, see Cpd. […] Equilibrium dissociation constants (Kd) values of the fluorescent probe to BRD4 BD1 and BD2 proteins were determined from protein saturation experiments by monitoring the total fluorescence polarization of mixtures composed with the fluorescent probe at a fixed concentration and proteins with increasing concentrations up to full saturation. Serial dilutions of testing proteins were mixed with the fluorescent probe to a final volume of 200 μl in the assay buffer (100 mM phosphate buffer, pH=6.5, 0.01% Triton X-100 (Sigma, 282103) being added right before assays). Final fluorescent probe concentration was 1.5 nM for both proteins. Plates were incubated at room temperature for 30 minutes with gentle shaking to assure equilibrium. FP values in millipolarization units (mP) were measured using the Infinite M-1000 plate reader (Tecan U.S., Research Triangle Park, N.C.) in Microfluor 1 96-well, black, round-bottom plates (Thermo Scientific, Waltham, Mass.) at an excitation wavelength of 485 nm and an emission wavelength of 530 nm.
The IC50 and Ki values of compounds were determined in a competitive binding experiment. […] Mixtures of 10 μl of the tested compounds in assay buffer with 40% Ethylene Glycol and 190 μl of preincubated protein/probe complex solution in the assay buffer (100 mM potassium phosphate, pH 6.5, 0.01% Triton X-100) were added into assay plates which were incubated at room temperature for 30 minutes with gentle shaking. Final concentrations of proteins were 10 and 6 nM in assays for BRD4 BD1 and BD2, respectively. Final probe concentration is 1.5 nM in both assays. […] FP values were measured as described above. IC50 values were determined by nonlinear regression fitting of the competition curves.

[1] = Homo sapiens, RS4-11, 96 h, 4 days incubation, RS4-11 cells
[2] = Homo sapiens, MOLM-13, 96 h, 4 days incubation, MOLM-13 cells
[3] = 4 days incubation, MOLM-13 cells
[4] = FP competitive binding, protein 10 nM, probe 1.5 nM, read-out: IC50 (nM) BRD4 BD1
[5] = 4 days incubation, RS4-11 cells

SMILES | IC50 (RS4-11; [1]) | IC50 (MOLM-13; [2]) | IC50 (recombinant BRD4 BD1; [4]) | IC50 (recombinant BRD4 BD2) | further results
Cc1nnc2n1-c1sc(CCCCO)c(Cc3ccccc3)c1COC2 [Cpd. No. 99, 4-(3-benzyl-9-methyl-4H,6H-thieno[2,3-e][1,2,4]triazolo[3,4-c][1,4]oxazepin-2-yl)butan-1-ol] | 2.2 µM | 2.9 µM |  |  | IC50 (recombinant BRD4 BD1; IC50 (nM) BRD4 BD1): 367 nM
Cc1sc2c(c1-c1ccnc3ccccc13)COCc1nnc(C)n1-2 [Cpd. No. 5, 2,9-dimethyl-3-(quinolin-4-yl)-4H,6H-thieno[2,3-e][1,2,4]triazolo[3,4-c][1,4]oxazepine] | > 5 µM |  | 1370 nM | 1070 nM | 
Cc1nnc2n1-c1cccc(C3=CCCc4ccccc43)c1COC2 [Cpd. No. 49, 7-(3,4-dihydronaphthalen-1-yl)-1-methyl-4,6-dihydrobenzo[e][1,2,4]triazolo[3,4-c][1,4]oxazepine] |  | > 5 µM | 2350 nM and 1820 nM | 271 nM and 175 nM | 
Cc1nnc2n1-c1cccc(C3(c4ccccc4)CC3)c1COC2 [Cpd. No. 48, 1-methyl-7-(1-phenylcyclopropyl)-4,6-dihydrobenzo[e][1,2,4]triazolo[3,4-c][1,4]oxazepine] |  | 1.4 µM | 454 nM and 696 nM | 71.6 nM and 137 nM | 
Cc1sc2c(c1C(C)c1ccccc1)COCc1nnc(C)n1-2 (stereo not shown) [Cpd. No. 28, 2,9-dimethyl-3-(1-phenylethyl)-4H,6H-thieno[2,3-e][1,2,4]triazolo[3,4-c][1,4]oxazepine] |  | 4.7 µM | 772 nM | 749 nM | 
Cc1sc2c(c1Cn1ccc3ccccc31)COCc1nnc(C)n1-2 [Cpd. No. 106, 3-((1H-indol-1-yl)methyl)-2,9-dimethyl-4H,6H-thieno[2,3-e][1,2,4]triazolo[3,4-c][1,4]oxazepine] | 1.5 µM | 2.6 µM | 283 nM |  | 
CCOC(=O)N1Cc2c(sc(C)c2Cc2ccccc2)-n2c(C)nnc2[C@@H]1C [Cpd. No. 18, ethyl (S)-3-benzyl-2,6,9-trimethyl-4H-thieno[3,2-f][1,2,4]triazolo[4,3-a][1,4]diazepine-5(6H)-carboxylate] |  |  | 532 nM | 601 nM | IC50 (MOLM-13; Homo sapiens, MOLM-13, 96 h): 4.3 µM
Cc1nnc2n1-c1cccc(C(C)c3ccccc3)c1COC2 (stereo not shown) [Cpd. No. 46, 1-methyl-7-(1-phenylethyl)-4,6-dihydrobenzo[e][1,2,4]triazolo[3,4-c][1,4]oxazepine] |  | 2.9 µM | 807 nM | 268 nM | 
Cc1nnc2n1-c1sc(C#Cc3cccnc3)c(Cc3ccccc3)c1COC2 [Cpd. No. 88, 3-benzyl-9-methyl-2-(pyridin-3-ylethynyl)-4,6-dihydrothieno[2,3-e][1,2,4]triazolo[3,4-c][1,4]oxazepine] |  |  |  |  | IC50 (RS4-11; Homo sapiens, RS4-11, 96 h): 0.25 µM; IC50 (MOLM-13; Homo sapiens, MOLM-13, 96 h): 0.12 µM
C=C(c1ccccc1)c1c(C)sc2c1COCc1nnc(C)n1-2 [Cpd. No. 24, 2,9-dimethyl-3-(1-phenylvinyl)-4H,6H-thieno[2,3-e][1,2,4]triazolo[3,4-c][1,4]oxazepine] |  | 3.4 µM | 491 nM | 492 nM | 
Cc1sc2c(c1Cc1ccccc1)CN(C)[C@@H](C)c1nnc(C)n1-2 [Cpd. No. 20, (S)-3-benzyl-2,5,6,9-tetramethyl-5,6-dihydro-4H-thieno[3,2-f][1,2,4]triazolo[4,3-a][1,4]diazepine] |  | 1.3 µM | 235 nM and 340 nM | 636 nM and 1210 nM | 

Now from value to compound, other results behind:

IC50 (RS4-11; [1]) | IC50 (MOLM-13; [2]) | IC50 (recombinant BRD4 BD1; [4]) | IC50 (recombinant BRD4 BD2) | SMILES | further results
1.7 µM | 0.8 µM |  |  | Cc1sc2c(c1Cc1ccccc1)COCc1nnc(C)n1-2 [Cpd. No. 4, 3-benzyl-2,9-dimethyl-4H,6H-thieno[2,3-e][1,2,4]triazolo[3,4-c][1,4]oxazepine] | IC50 (MOLM-13; [3]): 0.9 µM
1.2 µM | 1.2 µM | 153 nM |  | Cc1nnc2n1-c1sc(-c3cn[nH]c3)c(Cc3ccccc3)c1COC2 [Cpd. No. 91, 3-benzyl-9-methyl-2-(1H-pyrazol-4-yl)-4H,6H-thieno[2,3-e][1,2,4]triazolo[3,4-c][1,4]oxazepine] | 
2.6 µM | 3.9 µM | 222 nM |  | Cc1sc2c(c1Cc1ccccc1F)COCc1nnc(C)n1-2 [Cpd. No. 102, 3-(2-fluorobenzyl)-2,9-dimethyl-4H,6H-thieno[2,3-e][1,2,4]triazolo[3,4-c][1,4]oxazepine] | 
0.21 µM | 0.14 µM |  |  | Cc1nnc2n1-c1sc(C#Cc3ccncc3)c(Cc3ccccc3)c1COC2 [Cpd. No. 87, 3-benzyl-9-methyl-2-(pyridin-4-ylethynyl)-4,6-dihydrothieno[2,3-e][1,2,4]triazolo[3,4-c][1,4]oxazepine] | 
 | 3.4 µM | 263 nM | 312 nM | Cc1sc2c(c1Cc1ccccc1Cl)COCc1nnc(C)n1-2 [Cpd. No. 10, 3-(2-chlorobenzyl)-2,9-dimethyl-4H,6H-thieno[2,3-e][1,2,4]triazolo[3,4-c][1,4]oxazepine] | 
1.6 µM | 1.6 µM | 211 nM |  | Cc1nnc2n1-c1sc(-c3cnn(C)c3)c(Cc3ccccc3)c1COC2 [Cpd. No. 92, 3-benzyl-9-methyl-2-(1-methyl-H-pyrazol-4-yl)-4H,6H-thieno[2,3-e][1,2,4]triazolo[3,4-c][1,4]oxazepine] | 
 | 2.5 µM | 311 nM | 285 nM | Cc1sc2c(c1Cc1cccc(Cl)c1)COCc1nnc(C)n1-2 [Cpd. No. 8, 3-(3-chlorobenzyl)-2,9-dimethyl-4H,6H-thieno[2,3-e][1,2,4]triazolo[3,4-c][1,4]oxazepine] | 
 | 1 µM | 88.4 nM | 271 nM | Cc1sc2c(c1Cc1ccc(Cl)cc1)COCc1nnc(C)n1-2 [Cpd. No. 9, 3-(4-chlorobenzyl)-2,9-dimethyl-4H,6H-thieno[2,3-e][1,2,4]triazolo[3,4-c][1,4]oxazepine] | 
3.6 µM | > 5 µM | 832 nM |  | Cc1sc2c(c1Cc1cccc(C#N)c1)COCc1nnc(C)n1-2 [Cpd. No. 101, 3-(3-cyanobenzyl)-2,9-dimethyl-4H,6H-thieno[2,3-e][1,2,4]triazolo[3,4-c][1,4]oxazepine] | 
0.4 µM | 0.3 µM |  |  | Cc1nnc2n1-c1sc(C#CCCO)c(Cc3ccccc3)c1COC2 [Cpd. No. 96, 4-(3-benzyl-9-methyl-4H,6H-thieno[2,3-e][1,2,4]triazolo[3,4-c][1,4]oxazepin-2-yl)but-3-yn-1-ol] | IC50 (RS4-11; [5]): 0.34 µM; IC50 (MOLM-13; [3]): 0.25 µM
0.24 µM |  | 26.9 nM and 40 nM | 146 nM and 149 nM | Cc1nnc2n1-c1sc(C#CCCO)c(Cc3ccccc3)c1CO[C@H]2C [Cpd. No. 113, (S)-4-(3-benzyl-6,9-dimethyl-4H,6H-thieno[2,3-e][1,2,4]triazolo[3,4-c][1,4]oxazepin-2-yl)but-3-yn-1-ol] | IC50 (RS4-11; [5]): 0.45 µM
2.3 µM | 2.4 µM | 208 nM |  | Cc1sc2c(c1Cc1cccc(F)c1)COCc1nnc(C)n1-2 [Cpd. No. 100, 3-(3-fluorobenzyl)-2,9-dimethyl-4H,6H-thieno[2,3-e][1,2,4]triazolo[3,4-c][1,4]oxazepine] | 
> 5 µM | > 5 µM |  |  | Cc1nnc2n1-c1sc(C3CC3)c(Cc3ccccc3)c1COC2 [Cpd. No. 93, 3-benzyl-2-cyclopropyl-9-methyl-4H,6H-thieno[2,3-e][1,2,4]triazolo[3,4-c][1,4]oxazepine] | 
1 µM | 0.7 µM |  |  | Cc1nnc2n1-c1ccc(C#CCCO)c(Cc3ccccc3)c1COC2 [Cpd. No. 84, 4-(7-benzyl-1-methyl-4,6-dihydrobenzo[e][1,2,4]triazolo[3,4-c][1,4]oxazepin-8-yl)but-3-yn-1-ol] | 
0.2 µM | 0.14 µM |  |  | Cc1nnc2n1-c1sc(C#Cc3cncn3C)c(Cc3ccccc3)c1COC2 [Cpd. No. 86, 3-benzyl-9-methyl-2-((1-methyl-H-imidazol-5-yl)ethynyl)-4,6-dihydrothieno[2,3-e][1,2,4]triazolo[3,4-c][1,4]oxazepine] | 
0.18 µM |  | 5.4 nM and 10.5 nM and 12.9 nM | 112 nM and 142 nM and 127 nM | Cc1nnc2n1-c1sc(C#Cc3cnn(C)c3)c(Cc3ccc(F)cc3)c1COC2 [Cpd. No. 111, 3-(4-fluorobenzyl)-9-methyl-2-((1-methyl-H-pyrazol-4-yl)ethynyl)-4H,6H-thieno[2,3-e][1,2,4]triazolo[3,4-c][1,4]oxazepine] | IC50 (RS4-11; [5]): 0.25 µM

Reference: patent US11548899B2, “Fused 1,4-oxazepines and related analogs as BET bromodomain inhibitors” (THE REGENTS OF THE UNIVERSITY OF MICHIGAN, priority 2016, dated 2023)
